Reference: the supplement of paper PMC10307832

compound: C1CCC(CC1)N(CCNCCC2=C3C(=C(C=C2)O)NC(=O)CO3)C(=O)CCNCCC4=CC(=C(C=C4)Cl)Cl [AZ505] + CCNC(=O)c1noc(-c2cc(C(C)C)c(O)cc2O)c1-c1ccc(CN2CCOCC2)cc1 [Luminespib] (partner 0.01 µM); assay: relative viability (nuclei count vs DMSO), 5 days (fraction); higher = more cells survive; conditions: first compound 8 µM
In short: (§1)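 Values are medians from duplicate plates. Each reflects relative viability, defined as the nuclei count of treated wells over that of vehicle wells. Lung cancer cell lines in 1536-well plates were pin-tool dosed one day after seeding with one drug alone or with a fixed anchor-drug dose plus five library-drug doses (not always all listed) in √10 steps, then fixed, stained and imaged at 4× after 5 days.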

First: NCI-H1793
Second: PC-14
The relative viability of the first is higher: 0.167 for the first, 0.132 for the second.

EKVX gave a relative viability of 0.91.

compound: C1CCC(CC1)N(CCNCCC2=C3C(=C(C=C2)O)NC(=O)CO3)C(=O)CCNCCC4=CC(=C(C=C4)Cl)Cl [AZ505] + Cc1nc(Nc2ncc(C(=O)Nc3c(C)cccc3Cl)s2)cc(N2CCN(CCO)CC2)n1 [Dasatinib] (partner 0.075 µM); assay: as above; conditions: first compound 0.08 µM
In short: as §1

Going from HARA to SW 900, the relative viability rises from 0.191 to 0.584.

Compared with NCI-H322M, LCLC-97TM1 is higher in relative viability: 0.24 for the first, 0.77 for the second.

First: NCI-H2009
Second: A-427
The relative viability of the first is lower: 0.221 for the first, 0.659 for the second.

Compared with NCI-H441, NCI-H661 is higher in relative viability: 0.35 for the first, 0.862 for the second.

First: NCI-H1734
Second: NCI-H460
The relative viability of the first is lower: 0.456 for the first, 0.529 for the second.

Compared with NCI-H2347, SW 1573 is higher in relative viability: 0.254 for the first, 0.476 for the second.

First: NCI-H1395
Second: 201T
The relative viability of the first is lower: 0.427 for the first, 0.589 for the second.

Going from NCI-H1915 to HCC-827, the relative viability rises from 0.28 to 0.399.

Compared with LXF-289, NCI-H23 is higher in relative viability: 0.231 for the first, 0.721 for the second.

Going from NCI-H647 to CAL-12T, the relative viability rises from 0.233 to 0.466.

Going from NCI-H1651 to NCI-H2228, the relative viability falls from 0.47 to 0.447.

Compared with NCI-H1355, NCI-H3122 is higher in relative viability: 0.695 for the first, 0.729 for the second.

Going from NCI-H1437 to NCI-H1755, the relative viability rises from 0.346 to 0.393.

First: NCI-H2023
Second: HCC-15
The relative viability of the first is lower: 0.509 for the first, 0.513 for the second.

First: NCI-H1793
Second: PC-14
The relative viability of the first is higher: 0.345 for the first, 0.219 for the second.

EKVX gave a relative viability of 0.556.

same assay, conditions: first compound 0.253 µM

Going from HARA to SW 900, the relative viability rises from 0.229 to 0.458.

First: NCI-H322M
Second: LCLC-97TM1
The relative viability of the first is lower: 0.233 for the first, 0.795 for the second.

Compared with NCI-H2009, A-427 is higher in relative viability: 0.267 for the first, 0.693 for the second.

Compared with NCI-H441, NCI-H661 is higher in relative viability: 0.619 for the first, 0.932 for the second.

First: NCI-H1734
Second: NCI-H460
The relative viability of the first is higher: 0.467 for the first, 0.416 for the second.

First: SW 1573
Second: NCI-H1395
The relative viability of the first is higher: 0.605 for the first, 0.451 for the second.

Going from 201T to NCI-H1915, the relative viability falls from 0.548 to 0.298.

Compared with HCC-827, LXF-289 is lower in relative viability: 0.35 for the first, 0.189 for the second.

Going from NCI-H647 to CAL-12T, the relative viability rises from 0.104 to 0.585.

Going from NCI-H1651 to EPLC-272H, the relative viability falls from 0.416 to 0.371.

Going from NCI-H2228 to NCI-H1355, the relative viability rises from 0.421 to 0.674.

Compared with NCI-H3122, NCI-H1437 is lower in relative viability: 0.829 for the first, 0.334 for the second.

Compared with NCI-H1755, NCI-H2023 is higher in relative viability: 0.51 for the first, 0.534 for the second.

Compared with HCC-15, NCI-H1793 is lower in relative viability: 0.581 for the first, 0.439 for the second.

Going from PC-14 to EKVX, the relative viability rises from 0.241 to 0.543.

same assay, conditions: first compound 0.8 µM

Compared with HARA, SW 900 is higher in relative viability: 0.367 for the first, 0.54 for the second.

Going from NCI-H322M to LCLC-97TM1, the relative viability rises from 0.239 to 0.767.

Going from NCI-H2009 to A-427, the relative viability rises from 0.219 to 0.622.

Going from NCI-H441 to NCI-H661, the relative viability rises from 0.659 to 0.731.

First: NCI-H1734
Second: NCI-H460
The relative viability of the first is lower: 0.482 for the first, 0.557 for the second.

Compared with SW 1573, NCI-H1395 is lower in relative viability: 0.414 for the first, 0.375 for the second.

Compared with 201T, NCI-H1915 is lower in relative viability: 0.627 for the first, 0.269 for the second.

Going from HCC-827 to LXF-289, the relative viability falls from 0.385 to 0.169.

First: NCI-H23
Second: NCI-H647
The relative viability of the first is higher: 0.722 for the first, 0.158 for the second.

First: CAL-12T
Second: NCI-H1651
The relative viability of the first is lower: 0.381 for the first, 0.386 for the second.

First: EPLC-272H
Second: NCI-H2228
The relative viability of the first is lower: 0.315 for the first, 0.51 for the second.

First: NCI-H1355
Second: NCI-H3122
The relative viability of the first is lower: 0.603 for the first, 0.806 for the second.

Compared with NCI-H1437, NCI-H1755 is lower in relative viability: 0.58 for the first, 0.43 for the second.

Going from NCI-H2023 to HCC-15, the relative viability rises from 0.58 to 0.654.

First: NCI-H1793
Second: PC-14
The relative viability of the first is higher: 0.394 for the first, 0.296 for the second.

EKVX was tested, and the relative viability was 0.539.

same assay, conditions: first compound 2.53 µM

Compared with HARA, SW 900 is higher in relative viability: 0.318 for the first, 0.919 for the second.

Compared with NCI-H322M, LCLC-97TM1 is higher in relative viability: 0.261 for the first, 0.674 for the second.

Going from NCI-H2009 to A-427, the relative viability rises from 0.237 to 0.749.

Compared with NCI-H441, NCI-H661 is higher in relative viability: 0.549 for the first, 0.958 for the second.

Compared with NCI-H1734, NCI-H460 is lower in relative viability: 0.478 for the first, 0.314 for the second.

First: SW 1573
Second: NCI-H1395
The relative viability of the first is higher: 0.594 for the first, 0.419 for the second.

Going from 201T to NCI-H1915, the relative viability falls from 0.601 to 0.275.

Going from HCC-827 to LXF-289, the relative viability falls from 0.313 to 0.249.

Compared with NCI-H23, NCI-H647 is lower in relative viability: 0.797 for the first, 0.194 for the second.

Going from CAL-12T to NCI-H1651, the relative viability rises from 0.413 to 0.441.

Compared with EPLC-272H, NCI-H2228 is higher in relative viability: 0.265 for the first, 0.457 for the second.

First: NCI-H1355
Second: NCI-H3122
The relative viability of the first is higher: 0.702 for the first, 0.661 for the second.

First: NCI-H1437
Second: NCI-H1755
The relative viability of the first is lower: 0.378 for the first, 0.442 for the second.

First: NCI-H2023
Second: HCC-15
The relative viability of the first is lower: 0.503 for the first, 0.524 for the second.

First: PC-14
Second: EKVX
The relative viability of the first is lower: 0.264 for the first, 0.494 for the second.

same assay, conditions: first compound 8 µM

Compared with HARA, SW 900 is higher in relative viability: 0.217 for the first, 0.658 for the second.

Compared with NCI-H322M, LCLC-97TM1 is higher in relative viability: 0.273 for the first, 0.88 for the second.

Going from NCI-H2009 to A-427, the relative viability rises from 0.242 to 0.682.

Compared with NCI-H441, NCI-H661 is higher in relative viability: 0.694 for the first, 0.964 for the second.

Compared with NCI-H1734, NCI-H460 is higher in relative viability: 0.417 for the first, 0.59 for the second.

First: NCI-H2347
Second: SW 1573
The relative viability of the first is lower: 0.279 for the first, 0.426 for the second.

Compared with NCI-H1395, 201T is higher in relative viability: 0.455 for the first, 0.535 for the second.

Compared with NCI-H1915, HCC-827 is higher in relative viability: 0.337 for the first, 0.407 for the second.

Going from LXF-289 to NCI-H23, the relative viability rises from 0.181 to 0.877.

Compared with NCI-H647, CAL-12T is higher in relative viability: 0.162 for the first, 0.472 for the second.

Going from NCI-H1651 to EPLC-272H, the relative viability falls from 0.49 to 0.344.

Compared with NCI-H2228, NCI-H1355 is higher in relative viability: 0.443 for the first, 0.748 for the second.

First: NCI-H3122
Second: NCI-H1437
The relative viability of the first is higher: 0.899 for the first, 0.376 for the second.

Compared with NCI-H1755, NCI-H2023 is higher in relative viability: 0.474 for the first, 0.732 for the second.

First: HCC-15
Second: NCI-H1793
The relative viability of the first is higher: 0.618 for the first, 0.439 for the second.

First: PC-14
Second: EKVX
The relative viability of the first is lower: 0.227 for the first, 0.504 for the second.
